BigSolDB 2.1

O=C1CCCC(=O)C1
solubility (mole fraction)
Settings	288.15 K	293.15 K	298.15 K	303.15 K	308.15 K	313.15 K	318.15 K	323.15 K	328.15 K
in 2-butanone	0.0273	0.0355	0.0534	0.0727	0.0991	0.133	0.162	0.215	0.264
in THF	0.0855	0.109	0.135	0.164	0.208	0.246	0.307	0.347	0.392
in acetone	0.0488	0.0624	0.0834	0.108	0.132	0.173	0.211	0.245	0.282
in acetonitrile	0.0156	0.0198	0.0258	0.035	0.044	0.0538	0.0685	0.09	0.113
in chloroform	0.238	0.256	0.29	0.317	0.364	0.4	0.432	0.47	0.505
in ethyl acetate	0.0126	0.0155	0.0194	0.0244	0.0307	0.039	0.0515	0.0626	0.0819
in ethyl butyrate	0.0083	0.0103	0.0125	0.0148	0.0184	0.0221	0.0266	0.0322	0.0379
